Laboratory results taken from US20260193271A1, “PAN-KRAS INHIBITOR COMPOUND” (ADLAI NORTYE BIOPHARMA CO., LTD., priority 2022, published 2026).

What was measured:
[1] = tested on: SW480 (G12V); test: In vitro cell proliferation inhibition test (CellTiter-Glo), SW480; type: cell-based; conditions: Homo sapiens, SW480 colon cell line, KRAS (p.G12V), 72 h co-incubation
How it was run: (§1)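 Cells were seeded at 1000-5000/well by doubling time and cultured overnight at 37 °C, 5% CO2. They were then exposed for 72 h to 10-point, 3-fold compound dilutions (final top 10 μM), and viability was read by CellTiter-Glo luminescence. IC50 came from normalized signals fitted by four-parameter regression.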

[2] = tested on: AsPC-1 (G12D); test: In vitro cell proliferation inhibition test (CellTiter-Glo), AsPC-1; type: cell-based; conditions: Homo sapiens, ASPC1, AsPC-1 pancreas cell line, KRAS (p.G12D), 72 h co-incubation
How it was run: as §1

IC50 [1] [nM]	IC50 [2] [nM]	Structure (SMILES)
21	16	CCn1c(-c2cc(-c3cnc(N4CCOCC4)nc3)cnc2[C@H](C)OC)c2c3cc(ccc31)-c1csc(n1)C[C@H](NC(=O)[C@H]1C[C@@H]1C)C(=O)N1CCC[C@H](N1)C(=O)OCC(C)(C)C2 (atropisomer, axis not shown) [Compound 56, (1S,2S)-N-((6^3S,4S,Z)-1^1-ethyl-1^2-(2-((S)-1-methoxyethyl)-5-(2-morpholinopyrimidin-5-yl)pyridin-3-yl)-10,10-dimethyl-5,7-dioxo-6^1,6^2,6^3,6^4,6^5,6^6-hexahydro-1^1H-8-oxa-2(4,2)-thiazola-1(5,3)-indola-6(1,3)-pyridazinacycloundecaphane-4-yl)-2-methylcyclopropane-1-carboxamide]
3.7	2.6	CCn1c(-c2cc(-c3ccc(CN4CCN(C)CC4)cn3)cnc2[C@H](C)OC)c2c3cc(ccc31)-c1csc(n1)C[C@H](NC(=O)[C@H]1C[C@@H]1C)C(=O)N1CCC[C@H](N1)C(=O)OCC(C)(C)C2 (atropisomer, axis not shown) [Compound 41, (1S,2S)-N-((6^3S,4S,Z)-1^1-ethyl-1^2-(6′-((S)-1-methoxyethyl)-5-((4-methylpiperazin-1-yl)methyl)-[2,3′-bipyridin]-5′-yl)-10,10-dimethyl-5,7-dioxo-6^1,6^2,6^3,6^4,6^5,6^6-hexahydro-1^1H-8-oxa-2(4,2)-thiazola-1(5,3)-indola-6(1,3)-pyridazinacycloundecaphane-4-yl)-2-methylcyclopropane-1-carboxamide]
159	128	CCn1c(-c2cc(-c3ccc(CN4CCC(F)(F)CC4)cc3)cnc2[C@H](C)OC)c2c3cc(ccc31)-c1csc(n1)C[C@H](NC(=O)[C@H]1C[C@@H]1C)C(=O)N1CCC[C@H](N1)C(=O)OCC(C)(C)C2 (atropisomer, axis not shown) [Compound 7, (1S,2S)-N-((6^3S,4S,Z)-1^2-(5-(4-((4,4-difluoropiperidin-1-yl)methyl)phenyl)-2-((S)-1-methoxyethyl)pyridin-3-yl)-1^1-ethyl-10,10-dimethyl-5,7-dioxo-6^1,6^2,6^3,6^4,6^5,6^6-hexahydro-1^1H-8-oxa-2(4,2)-thiazola-1(5,3)-indola-6(1,3)-pyridazinacycloundecaphane-4-yl)-2-methylcyclopropane-1-carboxamide]
0.48	0.57	CCn1c(-c2cc(-c3cnc(CN4CCOCC4)nc3)cnc2[C@H](C)OC)c2c3cc(ccc31)-c1csc(n1)C[C@H](NC(=O)[C@H]1[C@H](C)[C@@H]1C)C(=O)N1CCC[C@H](N1)C(=O)OCC(C)(C)C2 (atropisomer, axis not shown) [Compound 39, (1r,2R,3S)-N-((6^3S,4S,Z)-1^1-ethyl-1^2-(2-((S)-1-methoxyethyl)-5-(2-(morpholinomethyl)pyrimidin-5-yl)pyridin-3-yl)-10,10-dimethyl-5,7-dioxo-6^1,6^2,6^3,6^4,6^5,6^6-hexahydro-1H-8-oxa-2(4,2)-thiazola-1(5,3)-indola-6(1,3)-pyridazinacycloundecaphane-4-yl)-2,3-dimethylcyclopropane-1-carboxamide]
1.2	0.21	CCn1c(-c2cc(-c3cc4c(n(C)c3=O)CCN(C)C4)cnc2[C@H](C)OC)c2c3cc(ccc31)-c1csc(n1)C[C@H](NC(=O)[C@H]1C[C@@H]1C)C(=O)N1CCC[C@H](N1)C(=O)OCC(C)(C)C2 (atropisomer, axis not shown) [Compound 52, (1S,2S)-N-((6^3S,4S,Z)-1^2-(5-(1,6-dimethyl-2-oxo-1,2,5,6,7,8-hexahydro-1,6-naphthyridin-3-yl)-2-((S)-1-methoxyethyl)pyridin-3-yl)-1^1-ethyl-10,10-dimethyl-5,7-dioxo-6^1,6^2,6^3,6^4,6^5,6^6-hexahydro-1^1H-8-oxa-2(4,2)-thiazola-1(5,3)-indola-6(1,3)-pyridazinacycloundecaphane-4-yl)-2-methylcyclopropane-1-carboxamide]
